# Measured values as given in US20220267298A1 (priority 2019, published 2022).
# “And” between values parts separate entries of the source, which are not always exact repeats. Identical values can stand only once.
# Molecular target: T1, GRK2 (Homo sapiens, UniProt P25098)
# T1 sequence (P25098 1-689): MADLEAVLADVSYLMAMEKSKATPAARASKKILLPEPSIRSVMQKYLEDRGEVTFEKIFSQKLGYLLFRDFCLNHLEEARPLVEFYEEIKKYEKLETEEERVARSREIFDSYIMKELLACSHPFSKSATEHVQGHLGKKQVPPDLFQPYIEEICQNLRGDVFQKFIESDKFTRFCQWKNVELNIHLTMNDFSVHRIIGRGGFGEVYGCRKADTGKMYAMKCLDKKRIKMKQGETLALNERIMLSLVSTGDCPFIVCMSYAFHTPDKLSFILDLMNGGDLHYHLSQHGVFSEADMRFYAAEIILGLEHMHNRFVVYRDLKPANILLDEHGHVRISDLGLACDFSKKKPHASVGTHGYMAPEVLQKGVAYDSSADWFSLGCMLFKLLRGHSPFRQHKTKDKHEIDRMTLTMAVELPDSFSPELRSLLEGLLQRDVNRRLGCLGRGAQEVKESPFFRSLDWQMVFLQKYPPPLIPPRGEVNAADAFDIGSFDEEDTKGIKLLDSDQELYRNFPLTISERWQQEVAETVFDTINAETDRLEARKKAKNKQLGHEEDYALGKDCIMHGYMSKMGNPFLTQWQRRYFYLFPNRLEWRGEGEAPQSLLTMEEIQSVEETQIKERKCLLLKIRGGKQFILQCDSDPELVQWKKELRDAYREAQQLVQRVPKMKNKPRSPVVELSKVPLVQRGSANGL
# Test: biochemical
# Conditions: GRK2 IC50 (μM), 10 nM GRK2; 10 uM ATP
row,IC50,Structure (SMILES)
1,~20 µM,"O=C(NCc1c(F)cccc1F)c1ccc(Cn2cnc3ccc(-c4cn[nH]c4)cc3c2=O)cc1 [Compound C3, N-[(2,6-Difluorophenyl)methyl]-4-[[4-oxo-6-(1H-pyrazol-4-yl)quinazolin-3-yl]methyl]benzamide]"
2,0.054 µM,"COc1cccc(C(CCN(C)C)n2cnc3ccc(-c4cn[nH]c4)cc3c2=O)c1 (stereo not shown) [Compound 29, 3-(3-(Dimethylamino)-1-(3-methoxyphenyl)propyl)-6-(1H-pyrazol-4-yl)quinazolin-4(3H)-one]"
3,0.066 µM,"COc1cccc(Cn2cnc3ccc(-c4c[nH]nc4C)cc3c2=O)c1 [Compound 37, 3-[(3-Methoxyphenyl)methyl]-6-(3-methyl-1H-pyrazol-4-yl)quinazolin-4-one]"
4,0.007 µM,"CC(c1cccc(C(=O)NCc2ccc(F)cc2)c1)n1cnc2ccc(-c3cn[nH]c3)cc2c1=O (stereo not shown) [Compound 61, N-[(4-Fluorophenyl)methyl]-3-[1-[4-oxo-6-(1H-pyrazol-4-yl)quinazolin-3-yl]ethyl]benzamide]"
5,1.31 µM,"CC(c1cccc(OCCS(C)(=O)=O)c1)n1cnc2ccc(-c3cn[nH]c3)cc2c1=O (stereo not shown) [Compound 17, 3-(1-(3-(2-(Methylsulfonyl)ethoxy)phenyl)ethyl)-6-(1H-pyrazol-4-yl)quinazolin-4(3H)-one]"
6,5.59 µM,"CCOc1cccc(C(CS(C)(=O)=O)n2cnc3ccc(-c4cn[nH]c4)cc3c2=O)c1 (stereo not shown) [Compound 15, 3-(1-(3-Ethoxyphenyl)-2-(methylsulfonyl)ethyl)-6-(1H-pyrazol-4-yl)quinazolin-4(3H)-one]"
7,0.03 µM,"NS(=O)(=O)c1cccc(Cn2cnc3ccc(-c4cn[nH]c4)cc3c2=O)c1 [Compound 34, 3-[[4-Oxo-6-(1H-pyrazol-4-yl)quinazolin-3-yl]methyl]benzenesulfonamide]"
8,> 20 µM,"O=c1c2cc(-c3c[nH]nc3C(F)(F)F)ccc2ncn1Cc1c(F)cccc1F [Compound 77, 3-[(2,6-Difluorophenyl)methyl]-6-[3-(trifluoromethyl)-1H-pyrazol-4-yl]quinazolin-4-one]"
9,2.45 µM,"COc1cccc(Cn2cnc3ccc(-c4ccnc5[nH]ccc45)cc3c2=O)c1 [Compound 53, 3-[(3-Methoxyphenyl)methyl]-6-(1H-pyrrolo[2,3-b]pyridin-4-yl)quinazolin-4-one]"
10,> 19 µM,"COc1cccc(Cn2cnc3ccc(-c4cnc(N)nc4)cc3c2=O)c1 [Compound 52, 6-(2-Aminopyrimidin-5-yl)-3-(3-methoxybenzyl)quinazolin-4(3H)-one]"
11,0.425 µM,"COc1cccc(Cn2c(C(F)(F)F)nc3ccc(-c4cn[nH]c4)cc3c2=O)c1 [Compound 21, 3-[(3-Methoxyphenyl)methyl]-6-(1H-pyrazol-4-yl)-2-(trifluoromethyl)quinazolin-4-one]"
12,1.72 µM,"COc1ccc(F)cc1Cn1cnc2ccc(-c3cn[nH]c3)cc2c1=O [Compound 40, 3-[(5-Fluoro-2-methoxy-phenyl)methyl]-6-(1H-pyrazol-4-yl)quinazolin-4-one]"

# More lines, now with the values behind:
row,Structure (SMILES),IC50
1,"COc1cccc(Cn2cnc3ccc(-c4c[nH]c5ncccc45)cc3c2=O)c1 [Compound 43, 3-[(3-Methoxyphenyl)methyl]-6-(1H-pyrrolo[2,3-b]pyridin-3-yl)quinazolin-4-one]",0.757 µM
2,"O=c1c2cc(-c3cn[nH]c3)ccc2ncn1Cc1c(F)cccc1F [Compound 78, 3-[(2,6-Difluorophenyl)methyl]-6-(1H-pyrazol-4-yl)quinazolin-4-one]",0.801 µM
3,"CC(c1cccc(C(=O)NC2CN(C)C2)c1)n1cnc2ccc(-c3cn[nH]c3)cc2c1=O (stereo not shown) [Compound 24, N-(1-Methylazetidin-3-yl)-3-[1-[4-oxo-6-(1H-pyrazol-4-yl)quinazolin-3-yl]ethyl]benzamide]",0.096 µM
4,"O=C(O)COc1cccc(Cn2cnc3ccc(-c4cn[nH]c4)cc3c2=O)c1 [Compound 27, 2-[3-[[4-Oxo-6-(1H-pyrazol-4-yl)quinazolin-3-yl]methyl]phenoxy]acetic acid]",0.088 µM
5,"O=c1c2cc(-c3cn[nH]c3)ccc2ncn1Cc1cccc(OC(F)(F)F)c1 [Compound 66, 6-(1H-Pyrazol-4-yl)-3-[[3-(trifluoromethoxy)phenyl]methyl]quinazolin-4-one]",22.2 µM
6,"[2H]C([2H])(Oc1cccc([C@@H](C)n2cnc3ccc(-c4cn[nH]c4)cc3c2=O)c1)C(=O)O [Compound 26, 2,2-Dideuterio-2-[3-[(1R)-1-[4-oxo-6-(1H-pyrazol-4-yl)quinazolin-3-yl]ethyl]phenoxy]acetic Acid]",0.143 µM
7,"COc1cccc(C(C)n2cnc3ccc(-c4c[nH]nc4N)cc3c2=O)c1 (stereo not shown) [Compound 19, 6-(3-Amino-1H-pyrazol-4-yl)-3-[1-(3-methoxyphenyl)ethyl]quinazolin-4-one]",> 50 µM
8,"COCCNc1nccc(-c2ccc3ncn(Cc4cccc(OC)c4)c(=O)c3c2)n1 [Compound C6, 6-[2-(2-Methoxyethylamino)pyrimidin-4-yl]-3-[(3-methoxyphenyl)methyl]quinazolin-4-one]",> 50 µM
9,"COc1cccc(Cn2c(C)nc3ccc(-c4cn[nH]c4)cc3c2=O)c1 [Compound 20, 3-[(3-Methoxyphenyl)methyl]-2-methyl-6-(1H-pyrazol-4-yl)quinazolin-4-one]",0.014 µM
10,"COc1cccc(Cn2cnc3ccc(-c4nn[nH]n4)cc3c2=O)c1 [Compound 48, 3-[(3-Methoxyphenyl)methyl]-6-(2H-tetrazol-5-yl)quinazolin-4-one]",> 50 µM
11,"O=C(NCc1ccc(F)cc1)c1cc(Cn2cnc3ccc(-c4cn[nH]c4)cc3c2=O)ccn1 [Compound C5, N-[(4-Fluorophenyl)methyl]-4-[[4-oxo-6-(1H-pyrazol-4-yl)quinazolin-3-yl]methyl]pyridine-2-carboxamide]",0.212 µM
12,"COc1cccc(Cn2cnc3ccc(-c4cn[nH]n4)cc3c2=O)c1 [Compound 44, 3-[(3-Methoxyphenyl)methyl]-6-(2H-triazol-4-yl)quinazolin-4-one]",0.1 µM
13,"Cc1nc2ccc(-c3cn[nH]c3)cc2c(=O)n1Cc1cccc(OC2CN(C)C2)c1 [Compound 25, 2-Methyl-3-(3-((1-methylazetidin-3-yl)oxy)benzyl)-6-(1H-pyrazol-4-yl)quinazolin-4(3H)-one]",2.34 µM
14,"O=C(NCc1ccc(F)cc1)c1cccc(Cn2cnc3ccc(-c4cn[nH]c4)c(F)c3c2=O)c1 [Compound 57, 3-[[5-Fluoro-4-oxo-6-(1H-pyrazol-4-yl)quinazolin-3-yl]methyl]-N-[(4-fluorophenyl)methyl]benzamide]",< 0.01 µM
15,"O=c1c2cc(-c3cn[nH]c3)ccc2ncn1Cc1cccc(OCc2ccccc2)c1 [Compound 63, 3-[(3-Benzyloxyphenyl)methyl]-6-(1H-pyrazol-4-yl)quinazolin-4-one]",0.065 µM
16,"O=c1c2cc(-c3cn[nH]c3)ccc2ncn1Cc1cccc2c1OCO2 [Compound C4, 3-(1,3-Benzodioxol-4-ylmethyl)-6-(1H-pyrazol-4-yl)quinazolin-4-one]",0.093 µM
17,"COc1cc(Cn2cnc3ccc(-c4ccnc5[nH]ccc45)cc3c2=O)ccc1F [Compound 54, 3-[(4-Fluoro-3-methoxy-phenyl)methyl]-6-(1H-pyrrolo[2,3-b]pyridin-4-yl)quinazolin-4-one]",12.3 µM
18,"COc1cccc([C@@H](C)n2cnc3ccc(-c4cn[nH]c4)cc3c2=O)c1 [Compound 39, 3-[(1R)-1-(3-Methoxyphenyl)ethyl]-6-(1H-pyrazol-4-yl)quinazolin-4-one]",0.009 µM and 0.017 µM
19,"[2H]C([2H])(Oc1cccc([C@@H](C)n2cnc3ccc(-c4cn[nH]c4)cc3c2=O)c1)C(=O)NC1CC1 [Compound 23, N-Cyclopropyl-2,2-dideuterio-2-[3-[(1R)-1-[4-oxo-6-(1H-pyrazol-4-yl)quinazolin-3-yl]ethyl]phenoxy]acetamide]",0.035 µM
20,"CC(c1cccc(NS(C)(=O)=O)c1)n1cnc2ccc(-c3cn[nH]c3)cc2c1=O (stereo not shown) [Compound 33, N-[3-[1-[4-Oxo-6-(1H-pyrazol-4-yl)quinazolin-3-yl]ethyl]phenyl]methanesulfonamide]",0.033 µM
21,"COc1cccc(Cn2cnc3ccc(-c4ccnc(N)n4)cc3c2=O)c1 [Compound 45, 6-(2-Aminopyrimidin-4-yl)-3-[(3-methoxyphenyl)methyl]quinazolin-4-one]",0.271 µM
22,"O=c1c2cc(-c3cccnc3)ccc2ncn1Cc1cccc(Cl)c1 [Compound 49, 3-[(3-Chlorophenyl)methyl]-6-(3-pyridyl)quinazolin-4-one]",> 50 µM
23,"O=c1c2cc(-c3ccc(F)nc3)ccc2ncn1Cc1ccccc1 [Compound 82, 3-Benzyl-6-(6-fluoro-3-pyridyl)quinazolin-4-one]",> 100 µM
24,"O=C(NCc1c(F)cccc1F)c1cc(F)cc(Cn2cnc3ccc(-c4cn[nH]c4)cc3c2=O)c1 [Compound 72, N-(2,6-Difluorobenzyl)-3-fluoro-5-((4-oxo-6-(1H-pyrazol-4-yl)quinazolin-3(4H)-yl)methyl)benzamide]",< 0.01 µM
25,"COc1cccc(Cn2cnc3ccc(-n4cn[nH]c4=O)cc3c2=O)c1 [Compound 38, 3-[(3-Methoxyphenyl)methyl]-6-(5-oxo-1H-1,2,4-triazol-4-yl)quinazolin-4-one]",0.129 µM
